Experimental data: PMC6001375, “CLERK is a novel receptor kinase required for sensing of root-active CLE peptides in Arabidopsis” (Development (Cambridge, England), 2018)

Columns and labels:
CLERK gene expression = test: CLERK::eGFP-GUS reporter expression in root meristem; assay type: in vivo, Arabidopsis thaliana; settings: 1 μM CLE26, 5 min vs 60 min (Fig. S1E); compared with VISUAL assay
Source text: B overlay of PI fluorescence withGFP channel, in absence of GFPC overlay of GFP fluorescence withPI channel, in absence of PI […]
Figure S1 – Supplemental figure. (A) Phylogenetic tree of the class II LRR-RKs of Arabidopsis. (B) Col-0 wild type control root meristem, […]
5 days old, confocal microscopy. Left: GFP channel, yellow, note some background on the root edges; Right: Overlay of GFP channel with […]
PI cell wall staining (cyan). (C) CLERK-GFP fusion protein expression pattern, confocal microscopy, imaged without PI cell wall staining.
Left: GFP fluorescence, yellow; Right: Overlay of GFP fluorescence with PI channel, note increased background. (D) BAM3-CITRINE fusion […]
protein expression pattern in a clerk mutant root meristem, confocal microscopy. Left: CITRINE fluorescence, yellow; Right: Overlay of CITRINE […]
fluorescence with PI cell wall staining (cyan). Asterisks indicate protophloem sieve element cell files. (E) CLERK gene expression in response […]
to CLE26 treatment, as monitored by GFP fluorescence in the root meristem of a Col-0 seedling that carried a CLERK::eGFP-GUS transgene, […]
confocal microscopy. The same root is shown at the beginning and end of a time course. GFP fluorescence, yellow; […]

[1] = tested on: BAM3 ectodomain with CLERK/At5g63710 ectodomains; test: Analytical size-exclusion chromatography, BAM3 + CLERK/At5g63710 ectodomains; assay type: binding, Arabidopsis thaliana; settings: 50 µM peptide
Description: (§1) Isolation of recombinant proteins and analytical gel filtrations were carried out as described previously ([Hazak et al., 2017]) with small adjustments. The coding sequences for BAM1-ECD (amino acids 20-637), BAM3-ECD (30-651), PXY-ECD (30-647), NIK1-ECD (32-248), NIK2-ECD (33-248), NIK3-ECD (26-238), CLERK-ECD (28-236) and At5G63710-ECD (51-224) were amplified from Arabidopsis thaliana cDNA using PfuX7 polymerase. All ECD-coding sequences were then cloned into a modified pFAST-BAC1 vector (Geneva Biotech) by GIBSON cloning, resulting in the addition of the azurocidin signal peptide sequence to the 5′-end, and of a 2×-STREP-9×HIS tag to the 3′-end of the ECD sequences. These plasmids, after being confirmed by sequencing, were transformed into Escherichia coli DH10MultiBac (Geneva Biotech) followed by the extraction of the resulting bacmids. Transfection of the bacmids into Spodoptera frugiperda Sf9 cells with Profectin (AB Vector) was carried out to produce and amplify the respective virus. Recombinant secreted expression of the proteins was carried out by addition of virus to Trichoplusia ni Tnao38 cells to reach a viral multiplicity of 1 and incubation of the cells for 3 days. […] Concentrations of the pure proteins were assessed by measuring their absorbance at 280 nm (NanoDrop Lite; Thermo Scientific) and subsequent correction with their respective extinction coefficient. […]

[2] = tested on: BAM3 ectodomain with NIK1/2/3 ectodomains; test: Analytical size-exclusion chromatography, BAM3 + NIK1/2/3 ectodomains; assay type: binding, Arabidopsis thaliana; settings: Fig. S3D; 50 µM peptide; pH 5.0
Description: as §1

| Sequence | CLERK downregulation in the root meristem (CLERK gene expression) | Elution of BAM3 ectodomain with CLERK/At5g63710 ectodomains ([1]; Fig. S3A, pH 5.0) | Peptide-induced binding of CLERK and BAM3 ectodomains ([1]; gel filtration, 20 mM citrate (pH 5.0), 150 mM NaCl) | Elution of BAM3 ectodomain with NIK1/2/3 ectodomains [2] |
| --- | --- | --- | --- | --- |
| RKVPRGPDPIHN [CLE26] | an equally strong effect was not observed in the root meristem |  |  |  |
| RRVRRGSDPIHN [CLE45] |  | elute as monomers | did not observe CLE45-induced binding | elute as monomers |
